For this experiment, the system named is cysteine cathepsins. Put plainly: Inhibition of probe labeling in living RAW cells by JPM-OEt pretreatment. It is filed as cell-based, mouse. The settings on record: pre-treatment of living RAW cells with JPM-OEt (50 μM, 1 hr); labeling by qABP 8. The protocol:
RAW cells were cultured in DMEM (GIBCO) supplemented with 10% fetal bovine serum (FBS; GIBCO), 100 units/mL penicillin and 100 μg/mL streptomycin (GIBCO). 4T1 cells (ATCC) were cultured in RPMI (GIBCO) supplemented with 10% fetal bovine serum (FBS; GIBCO), 100 units/mL penicillin and 100 μg/mL streptomycin (GIBCO). All cells were cultured in a 5% CO2 humidified incubator at 37° C. For intact cell labeling, cells were exposed to probe (500× in DMSO) in culture media and incubated for 2 hr at 37° C., unless stated otherwise. Where indicated the cells were preincubated for 1 hr with the inhibitor JPM-OEt (500× in DMSO) or exposed to mouse serum (1 μl probe stock solution in DMSO added to 9 μl serum) for 4 hr before addition to the cells. After labeling, the cells were washed with PBS and resuspended in hypotonic lysis buffer (50 mM PIPES pH 7.4, 10 mM KCl, 5 mM MgCl2, 2 mM EDTA, 4 mM DTT, and 1% NP-40) and put on ice for 15 min, centrifuged at 4° C. for 30 min and supernatants were collected, and protein concentration was determined using a BCA kit (pierce). […] Labeling intensities were quantified using Image J software. […] After 15 min on ice and centrifugation at 4° C. for 30 min the supernatants were collected, and protein concentration was determined using a BCA kit (pierce). […] 4×SDS-sample buffer was added and the protein was denatured for 3 min at 100° C. and analyzed as described above. […]

As to JPM-OEt, the “blocking of probe labeling” value is given as “more than 90%”.

The values above are taken from patent publication US11655236B2, “Activity-based probe compounds, compositions, and methods of use” (THE BOARD OF TRUSTEES OF THE LELAND STANFORD JUNIOR …, priority 2013, dated 2023).
